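Exposure lasted 48 hours, with cells grown in 96-well plates and compounds tested at five concentrations. The concentration for 50% growth inhibition is given as GI50. TGI is the concentration that stops growth completely.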
How the values were obtained:
Assay in all cases: inhibition of tumour cell growth, NCI panel, 48 h
[1] = test system: HOP-92 NSCLC
[2] = test system: HCT-116 colon
[3] = test system: M14 melanoma
[4] = test system: T-47D breast
[5] = test system: OVCAR-5 ovarian
[6] = test system: EKVX NSCLC
[7] = test system: MOLT-4 leukemia
[8] = test system: SF-295 CNS
[9] = test system: COLO 205 colon
[10] = test system: SNB-75 CNS
[11] = test system: DU-145 prostate
[12] = test system: RXF 393 renal
[13] = test system: HOP-62 NSCLC
[14] = test system: ACHN renal
[15] = test system: A498 renal
[16] = test system: MDA-MB-231 breast
[17] = test system: SF-539 CNS
[18] = test system: SN12C renal
[19] = test system: MCF7 breast
[20] = test system: OVCAR-3 ovarian
[21] = test system: HL-60(TB) leukemia
[22] = test system: NCI-H23 lung
[23] = test system: NCI/ADR-RES ovarian
[24] = test system: SK-MEL-5 melanoma
[25] = test system: UACC-257 melanoma
[26] = test system: HCC-2998 colon
[27] = test system: SNB-19 CNS
[28] = test system: CAKI-1 renal
[29] = test system: UACC-62 melanoma
[30] = test system: SR leukemia
[31] = test system: BT-549 breast
[32] = test system: K-562 leukemia
[33] = test system: CCRF-CEM leukemia
[34] = test system: LOX IMVI melanoma
[35] = test system: U251 CNS
[36] = test system: PC-3 prostate
[37] = test system: MDA-MB-435
[38] = test system: OVCAR-4 ovarian
[39] = test system: NCI-H460 lung
[40] = test system: 786-0 renal
[41] = test system: RPMI-8226 leukemia
[42] = test system: SK-OV-3 ovarian
[43] = test system: HT29 colon
[44] = test system: NCI-H522 lung
[45] = test system: A549 NSCLC
[46] = test system: KM12 colon
[47] = test system: NCI-H226 lung
[48] = test system: SK-MEL-2 melanoma
[49] = test system: SK-MEL-28 melanoma
[50] = test system: SW-620 colon
[51] = test system: TK-10 renal
[52] = test system: OVCAR-8 ovarian
[53] = test system: IGROV1 ovarian
[54] = test system: HCT-15 colon
[55] = test system: HS 578T breast
[56] = test system: UO-31 renal
[57] = test system: SF-268 CNS

Molecule `N#CC(C#N)=C1/C(=C/C=C/C=C/C=C/c2ccc(N3CCCCC3)s2)S(=O)(=O)c2ccccc21` has a TGI [1] of over 100 µM, a TGI [2] of over 100 µM and a TGI [3] of over 100 µM. The TGI [4] was over 100 µM, the TGI [5] was over 100 µM and the TGI [6] was over 100 µM. It also gave a TGI [7] of 63 µM, a TGI [8] of over 100 µM and a TGI [9] of over 100 µM. It also gave a TGI [10] of over 100 µM, a TGI [11] of over 100 µM and a TGI [12] of over 100 µM. It also gave a TGI [13] of over 100 µM, a TGI [14] of over 100 µM and a TGI [15] of over 100 µM. For the same molecule, the TGI [16] was over 100 µM, the TGI [17] was over 100 µM and the TGI [18] was over 100 µM. The TGI [19] was over 100 µM, the TGI [20] was over 100 µM and the TGI [21] was over 100 µM. For the same molecule, the TGI [22] was over 100 µM, the TGI [23] was over 100 µM and the TGI [24] was over 100 µM. It also gave a TGI [25] of over 100 µM, a TGI [26] of over 100 µM and a TGI [27] of over 100 µM. The TGI [28] was over 100 µM, the TGI [29] was over 100 µM and the TGI [30] was over 100 µM. For the same molecule, the TGI [31] was over 100 µM, the TGI [32] was over 100 µM and the TGI [33] was over 100 µM. The TGI [34] was over 100 µM, the TGI [35] was over 100 µM and the TGI [36] was over 100 µM. For the same molecule, the TGI [37] was over 100 µM, the TGI [38] was over 100 µM and the TGI [39] was over 100 µM. The TGI [40] was over 100 µM, the TGI [41] was over 100 µM and the TGI [42] was over 100 µM. For the same molecule, the TGI [43] was over 100 µM, the TGI [44] was over 100 µM and the TGI [45] was over 100 µM. For the same molecule, the TGI [46] was over 100 µM, the TGI [47] was over 100 µM and the TGI [48] was over 100 µM. For the same molecule, the TGI [49] was over 100 µM, the TGI [50] was over 100 µM and the TGI [51] was over 100 µM. The TGI [52] was over 100 µM, the TGI [53] was over 100 µM and the TGI [54] was over 100 µM.

For `NC(=O)c1cc(Cl)ccc1NC(=O)COc1ccccc1`, the GI50 [1] was 5.7 µM, the TGI [1] was over 100 µM and the GI50 [2] was 2.72 µM. For the same molecule, the TGI [2] was over 100 µM, the GI50 [3] was 2.21 µM and the TGI [3] was over 100 µM. It also gave a GI50 [4] of 6.88 µM, a TGI [4] of over 100 µM and a GI50 [5] of 3.86 µM. It also gave a TGI [5] of over 100 µM, a GI50 [7] of 8.14 µM and a TGI [7] of over 100 µM. It also gave a GI50 [8] of 1.96 µM, a TGI [8] of 41.6 µM and a GI50 [9] of 2.51 µM. It also gave a TGI [9] of 14.4 µM, a GI50 [10] of 1.81 µM and a TGI [10] of 23 µM. It also gave a GI50 [11] of 6.01 µM, a TGI [11] of over 100 µM and a GI50 [12] of 3.93 µM. The TGI [12] was 39.4 µM, the GI50 [13] was 5.88 µM and the TGI [13] was over 100 µM. The GI50 [14] was 10.7 µM, the TGI [14] was over 100 µM and the GI50 [15] was 1.41 µM. The TGI [15] was 9.27 µM, the GI50 [55] was 4.65 µM and the TGI [55] was over 100 µM. The GI50 [16] was 9.02 µM, the TGI [16] was over 100 µM and the GI50 [17] was 1.8 µM. The TGI [17] was 5.2 µM, the GI50 [18] was 17 µM and the TGI [18] was over 100 µM. It also gave a GI50 [19] of 1.81 µM, a TGI [19] of over 100 µM and a GI50 [20] of 2.3 µM. It also gave a TGI [20] of 10 µM, a GI50 [21] of 3.29 µM and a TGI [21] of 70.7 µM. For the same molecule, the GI50 [22] was 5.9 µM, the TGI [22] was over 100 µM and the GI50 [23] was 1.43 µM. It also gave a TGI [23] of 20.9 µM, a GI50 [56] of 17.9 µM and a TGI [56] of over 100 µM. For the same molecule, the GI50 [24] was 7.45 µM, the TGI [24] was over 100 µM and the GI50 [25] was over 100 µM. The TGI [25] was over 100 µM, the GI50 [26] was 12.1 µM and the TGI [26] was over 100 µM. For the same molecule, the GI50 [27] was 11.7 µM, the TGI [27] was over 100 µM and the GI50 [28] was 4.18 µM. It also gave a TGI [28] of over 100 µM, a GI50 [57] of 9.89 µM and a TGI [57] of over 100 µM. The GI50 [29] was 5.42 µM, the TGI [29] was over 100 µM and the GI50 [30] was 0.777 µM. For the same molecule, the TGI [30] was over 100 µM, the GI50 [32] was 0.854 µM and the TGI [32] was over 100 µM. For the same molecule, the GI50 [33] was 3.07 µM, the TGI [33] was over 100 µM and the GI50 [34] was 8.33 µM. It also gave a TGI [34] of over 100 µM, a GI50 [35] of 2.34 µM and a TGI [35] of over 100 µM. It also gave a GI50 [36] of 3.22 µM, a TGI [36] of over 100 µM and a GI50 [37] of 0.356 µM. The TGI [37] was 2.22 µM, the GI50 [38] was over 100 µM and the TGI [38] was over 100 µM. It also gave a GI50 [39] of 3 µM, a TGI [39] of over 100 µM and a GI50 [40] of 9.54 µM. The TGI [40] was over 100 µM, the GI50 [41] was 4.33 µM and the TGI [41] was over 100 µM. It also gave a GI50 [42] of 8.15 µM, a TGI [42] of over 100 µM and a GI50 [43] of 1.74 µM. It also gave a TGI [43] of over 100 µM, a GI50 [44] of 3.78 µM and a TGI [44] of over 100 µM. For the same molecule, the GI50 [45] was 7.06 µM, the TGI [45] was over 100 µM and the GI50 [46] was 2.13 µM. It also gave a TGI [46] of over 100 µM, a GI50 [47] of over 100 µM and a TGI [47] of over 100 µM. It also gave a GI50 [48] of 5.08 µM, a TGI [48] of over 100 µM and a GI50 [49] of 6.25 µM. For the same molecule, the TGI [49] was over 100 µM, the GI50 [50] was 2.58 µM and the TGI [50] was over 100 µM. For the same molecule, the GI50 [51] was 63.8 µM, the TGI [51] was over 100 µM and the GI50 [52] was 7.06 µM. It also gave a TGI [52] of over 100 µM, a GI50 [53] of 5.6 µM and a TGI [53] of over 100 µM. For the same molecule, the GI50 [54] was 1.57 µM and the TGI [54] was over 100 µM.
